According to ChEMBL document CHEMBL4219137, “A novel templates of piperazinyl-1,2-dihydroquinoline-3-carboxylates: Synthesis, anti-microbial evaluation and molecular docking studies” (Bioorg Med Chem Lett, 2018):
Converted amounts (≈) assume the structure as drawn.

Tests used:
Bacillus subtilis [1] = test: Antibacterial activity against gram-positive Bacillus subtilis MTCC 121 after 24 hrs by agar well diffusion method; type: functional; conditions: MTCC 121, 24 h
Escherichia coli [2] = test: Antibacterial activity against gram-negative Escherichia coli MTCC 739 after 24 hrs by agar well diffusion method; type: functional; conditions: MTCC 739, 24 h
Candida albicans [3] = test: Antifungal activity against Candida albicans MTCC 3017 after 24 hrs by agar well diffusion method; type: functional; conditions: MTCC 3017, 24 h
Bacillus subtilis [4] = test: Bactericidal activity against gram-positive Bacillus subtilis MTCC 121 incubated for 24 hrs followed by microbial sample growth at Mueller Hinton agar plates; type: functional; conditions: MTCC 121, 24 h
Escherichia coli [5] = test: Bactericidal activity against gram-negative Escherichia coli MTCC 739 incubated for 24 hrs followed by microbial sample growth at Mueller Hinton agar plates; type: functional; conditions: MTCC 739, 24 h
Candida albicans [6] = test: Fungicidal activity against Candida albicans MTCC 3017 incubated for 24 hrs followed by microbial sample growth Sabouraud dextrose agar plates; type: functional; conditions: MTCC 3017, 24 h
Staphylococcus aureus [7] = test: Antibacterial activity against gram-positive Staphylococcus aureus MTCC 96 after 24 hrs by agar well diffusion method; type: functional; conditions: MTCC 96, 24 h
Staphylococcus aureus [8] = test: Antibacterial activity against gram-positive Staphylococcus aureus MLS-16 MTCC 2940 after 24 hrs by agar well diffusion method; type: functional; conditions: MLS-16 MTCC 2940, 24 h
Micrococcus luteus [9] = test: Antibacterial activity against gram-positive Micrococcus luteus MTCC 2470 after 24 hrs by agar well diffusion method; type: functional; conditions: MTCC 2470, 24 h
Staphylococcus aureus [10] = test: Bactericidal activity against gram-positive Staphylococcus aureus MTCC 96 incubated for 24 hrs followed by microbial sample growth at Mueller Hinton agar plates; type: functional; conditions: MTCC 96, 24 h
Staphylococcus aureus [11] = test: Bactericidal activity against gram-positive Staphylococcus aureus MLS-16 MTCC 2940 incubated for 24 hrs followed by microbial sample growth at Mueller Hinton agar plates; type: functional; conditions: MLS-16 MTCC 2940, 24 h
Micrococcus luteus [12] = test: Bactericidal activity against gram-positive Micrococcus luteus MTCC 2470 incubated for 24 hrs followed by microbial sample growth at Mueller Hinton agar plates; type: functional; conditions: MTCC 2470, 24 h
[13] = target: T1, 4,4'-diapophytoene synthase (Staphylococcus aureus, UniProt A9JQL9); test: Inhibition of Staphylococcus aureus dehydrosqualene synthase
T1 sequence (A9JQL9 whole entry): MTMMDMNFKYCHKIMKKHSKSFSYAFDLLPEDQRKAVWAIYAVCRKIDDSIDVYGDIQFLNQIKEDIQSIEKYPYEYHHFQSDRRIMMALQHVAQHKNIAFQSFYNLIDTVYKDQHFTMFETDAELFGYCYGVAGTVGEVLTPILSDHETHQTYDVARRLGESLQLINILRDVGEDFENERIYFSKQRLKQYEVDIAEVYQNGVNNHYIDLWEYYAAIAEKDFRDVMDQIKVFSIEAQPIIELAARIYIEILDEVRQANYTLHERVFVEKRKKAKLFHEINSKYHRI

Raoultella planticola [14] = test: Antibacterial activity against gram-negative Klebsiella planticola MTCC 530 after 24 hrs by agar well diffusion method; type: functional; conditions: MTCC 530, 24 h
Raoultella planticola [15] = test: Bactericidal activity against gram-negative Klebsiella planticola MTCC 530 incubated for 24 hrs followed by microbial sample growth at Mueller Hinton agar plates; type: functional; conditions: MTCC 530, 24 h
Pseudomonas aeruginosa = test: microbe, parasite or virus in culture; conditions: MTCC 2453, 24 h
Description: Bactericidal activity against gram-negative Pseudomonas aeruginosa MTCC 2453 incubated for 24 hrs followed by microbial sample growth at Mueller Hinton agar plates

| Compound | MIC (Bacillus subtilis [1]) [µg/mL] | MIC (Escherichia coli [2]) [µg/mL] | MIC (Candida albicans [3]) [µg/mL] | MBC (Bacillus subtilis [4]) [µg/mL] | MBC (Escherichia coli [5]) [µg/mL] | MFC (Candida albicans [6]) [µg/mL] | MIC (Staphylococcus aureus [7]) [µg/mL] | MIC (Staphylococcus aureus [8]) [µg/mL] | MIC (Micrococcus luteus [9]) [µg/mL] | MBC (Staphylococcus aureus [10]) [µg/mL] | MBC (Staphylococcus aureus [11]) [µg/mL] | MBC (Micrococcus luteus [12]) [µg/mL] | Ki [13] [µM] | MIC (Raoultella planticola [14]) [µg/mL] | MBC (Raoultella planticola [15]) [µg/mL] | MBC (Pseudomonas aeruginosa) [µg/mL] |
| --- | --- | --- | --- | --- | --- | --- | --- | --- | --- | --- | --- | --- | --- | --- | --- | --- |
| CCOC(=O)c1c(N2CCN(c3ccccc3C(F)(F)F)CC2)c2ccccc2n(CC)c1=O | 7.8 (≈ 16.5 µM) | 7.8 (≈ 16.5 µM) | 7.8 (≈ 16.5 µM) | 15.6 (≈ 32.9 µM) | 15.6 (≈ 32.9 µM) | 15.6 (≈ 32.9 µM) | – | – | – | – | – | – | – | – | – | – |
| CCOC(=O)c1c(N2CCN(c3ccccc3F)CC2)c2ccccc2n(C)c1=O | 3.9 (≈ 9.52 µM) | 3.9 (≈ 9.52 µM) | 3.9 (≈ 9.52 µM) | 7.8 (≈ 19 µM) | 7.8 (≈ 19 µM) | 7.8 (≈ 19 µM) | 3.9 (≈ 9.52 µM) | 7.8 (≈ 19 µM) | 3.9 (≈ 9.52 µM) | 7.8 (≈ 19 µM) | 15.6 (≈ 38.1 µM) | 7.8 (≈ 19 µM) | 7.87 | – | – | – |
| CCOC(=O)c1c(N2CCN(c3ccccc3F)CC2)c2ccccc2n(CC)c1=O | – | – | – | – | – | – | 3.9 (≈ 9.21 µM) | – | – | 7.8 (≈ 18.4 µM) | – | – | 8.33 | 7.8 (≈ 18.4 µM) | 7.8 (≈ 18.4 µM) | – |
| CCOC(=O)c1c(N2CCN(C(=O)OC(C)(C)C)CC2)c2ccccc2n(C)c1=O | – | – | – | – | – | – | 3.9 (≈ 9.39 µM) | – | – | 7.8 (≈ 18.8 µM) | – | – | 5.19 | – | – | – |
| CCOC(=O)c1c(N2CCN(c3cccc(OC)c3)CC2)c2ccccc2n(CC)c1=O | – | – | – | – | – | – | 3.9 (≈ 8.95 µM) | – | 7.8 (≈ 17.9 µM) | 7.8 (≈ 17.9 µM) | – | 15.6 (≈ 35.8 µM) | 15.7 | – | – | – |
| CCOC(=O)c1c(N2CCN(c3ccc(F)cc3)CC2)c2ccccc2n(C)c1=O | – | – | 7.8 (≈ 19 µM) | – | – | 15.6 (≈ 38.1 µM) | 3.9 (≈ 9.52 µM) | – | – | 7.8 (≈ 19 µM) | – | – | 1.26 | – | – | – |
| CCOC(=O)c1c(N2CCN(c3ccccc3OC)CC2)c2ccccc2n(CC)c1=O | – | – | – | – | – | – | 3.9 (≈ 8.95 µM) | – | – | 7.8 (≈ 17.9 µM) | – | – | 14 | – | – | – |
| CCOC(=O)c1c(N2CCCC2)c2ccccc2n(CC)c1=O | – | – | – | – | – | – | – | – | 7.8 (≈ 24.8 µM) | – | – | 15.6 (≈ 49.6 µM) | – | – | – | – |
| CCOC(=O)c1c(N2CCN(c3ccccc3C(F)(F)F)CC2)c2ccccc2n(C)c1=O | – | – | 7.8 (≈ 17 µM) | – | – | 15.6 (≈ 34 µM) | – | – | – | – | – | – | – | – | – | – |
| CCOC(=O)c1c(N2CCN(C(=O)OC(C)(C)C)CC2)c2ccccc2n(CC)c1=O | – | – | – | – | – | – | 3.9 (≈ 9.08 µM) | – | – | 7.8 (≈ 18.2 µM) | – | – | 20.2 | – | – | – |
| CCOC(=O)c1c(N2CCN(c3ccc(F)cc3)CC2)c2ccccc2n(CC)c1=O | 3.9 (≈ 9.21 µM) | 3.9 (≈ 9.21 µM) | 3.9 (≈ 9.21 µM) | 7.8 (≈ 18.4 µM) | 7.8 (≈ 18.4 µM) | 7.8 (≈ 18.4 µM) | 3.9 (≈ 9.21 µM) | 3.9 (≈ 9.21 µM) | 3.9 (≈ 9.21 µM) | 7.8 (≈ 18.4 µM) | 7.8 (≈ 18.4 µM) | 7.8 (≈ 18.4 µM) | 6.89 | 3.9 (≈ 9.21 µM) | 7.8 (≈ 18.4 µM) | – |
| CCOC(=O)c1c(N2CCN(c3ccccc3OC)CC2)c2ccccc2n(C)c1=O | – | – | – | – | – | – | 3.9 (≈ 9.25 µM) | – | – | 7.8 (≈ 18.5 µM) | – | – | 19.8 | – | – | – |
| O=C(O)c1cn(C2CC2)c2cc(N3CCNCC3)c(F)cc2c1=O [CIPROFLOXACIN] | 0.9 (≈ 2.72 µM) | 0.9 (≈ 2.72 µM) | – | 0.9 (≈ 2.72 µM) | 0.9 (≈ 2.72 µM) | – | 0.9 (≈ 2.72 µM) | 0.9 (≈ 2.72 µM) | 0.9 (≈ 2.72 µM) | 0.9 (≈ 2.72 µM) | 0.9 (≈ 2.72 µM) | 0.9 (≈ 2.72 µM) | – | 0.9 (≈ 2.72 µM) | 0.9 (≈ 2.72 µM) | 0.9 (≈ 2.72 µM) |
| Clc1ccc(COC(Cn2ccnc2)c2ccc(Cl)cc2Cl)c(Cl)c1 (stereo not given) [MICONAZOLE] | – | – | 7.8 (≈ 18.7 µM) | – | – | 7.8 (≈ 18.7 µM) | – | – | – | – | – | – | – | – | – | – |
